Target: T1, WcaG (KP3709) (Klebsiella pneumoniae, UniProt A0ACD7U4D6)
T1 construct: His-tagged (pET28a), expressed in E. coli BL21 star (DE3)
Test: HPLC product analysis
Type: biochemical
Details: coupled with Gmd from GDP-mannose, pH 8.0
Excerpt: HPLC product analysis on WcaG (KP3709) | GDP-mannose+NADPH+KP3711+KP3709

## NC(=O)C1=CN([C@@H]2O[C@H](COP(=O)(O)OP(=O)(O)OC[C@H]3O[C@@H](n4cnc5c(N)ncnc54)[C@H](OP(=O)(O)O)[C@@H]3O)[C@@H](O)[C@H]2O)C=CC1 [NADPH]
  HPLC product analysis: GDP-mannose+NADPH+KP3711+KP3709
